Data on two compounds can be found in US20260000601A1, “Anti-Carbonylation Composition And Method Of Protecting Keratin Materials From Carbonylation Stimuli By Using Compositions Including Polylysines” (ELC Management LLC, priority 2022, published 2026).

The data set relates to Bovine Serum Albumin (BSA). In words: In vitro anti-carbonylation efficacy test (acrolein-induced carbonylation of BSA, Protein Carbonyl Assay Kit). The conditions noted are these: BSA + acrolein in PBS, 37° C. overnight; for % inhibition of carbonylation (average): blank = 0%; for Percentage of protein carbonylation level (average): blank = 100%.
Where [1] appears, read: agent working concentration 0.005%.
Setting [2] is: agent working concentration 0.05%.

Method: This assay provides an in vitro method to determine how an anti-carbonylation agent/composition affects the extent of protein carbonylation. With deionized water, the anti-carbonylation agent/composition to be tested was made into a 1% solution, Bovine Serum Albumin (BSA) was made into a 10 mg/mL solution, and Acrolein was made into a 10 mM solution. Then, in a 1.5 mL centrifuge tube, according to the content in Table 1, BSA (10 mg/mL), anti-carbonylation agent/composition (1%), Acrolein (10 mM) and Phosphate buffer solution (PBS) were added to the centrifuge tube. The sample containing only BSA and PBS served as a baseline, and the sample containing BSA, Acrolein and PBS served as a blank. The final liquid volume in each centrifuge tube was 1.0 mL. Each group contained three replicate samples, and all samples were placed at 37° C. overnight.
The protein carbonyl content in the above samples was detected by using the Protein Carbonyl Assay Kit of Nanjing Jiancheng Bioengineering Institute. The detection methods are as follows: take 0.1 mL of sample into the assay tube, then add 0.4 mL of reagent 3 in the kit, vortex to mix for 1 min, and react at 37° C. for 30 min in the dark. Add 0.5 mL of reagent 5 in the kit, vortex and mix for 1 min, centrifuge at 12,000 r/min for 10 min at 4° C., discard the supernatant, and leave the pellet. Add 1.0 mL of anhydrous ethanol and ethyl acetate (1:1) mixed solution, vortex to mix for 1 min, centrifuge at 12,000 r/min for 10 min at 4° C., discard the supernatant, leave the precipitate, and repeat the above steps four times. Add 1.25 mL of reagent VI in the kit, mix well, place it in 37° C. for 15 min, vortex to mix, dissolve all the precipitates, and centrifuge at 12,000 r/min for 15 minutes. Take the supernatant in a quartz cuvette with a light diameter of 0.5 cm, adjust the zero with reagent six, and measure the absorbance value of each tube at 370 nm (ultraviolet). According to the formula, we can get the protein carbonyl content.
The protein content of the samples was determined using Thermos's Micro BCA™ Protein Assay Kit. First, prepare Diluted Albumin (BSA) Standards (Working Range=20-750 μg/mL). Mix BCA Reagent A with Reagent B (Reagent A:Reagent B=50:1) to prepare working solution. Take 25 μL each of the protein standard at different dilution concentration and the protein sample, add them to the microplate. Add 200 μL of working solution to each well and mix well by shaking on a shaker for 30 s. The microplate was sealed and incubated at 37° C. for 30 min. Cool the microplate to room temperature and measure the absorbance of the sample at a wavelength of 562 nm. The corrected absorbance value is the absorbance value of the blank sample subtracted from the readings of each standard and sample. The protein concentration was read against a standard curve prepared with known amounts of BSA. Referring to the standard curve, according to the corrected absorbance value of each protein sample, read the protein concentration of each sample within the linear range of the standard curve. Calculate the amount of protein in the original sample based on the sample volume and dilution.
The anti-carbonylation capability of each anti-carbonylation agents/composition can be obtained by dividing the carbonylation degree of the sample by the BSA protein content.

Consider `NCCCC[C@H](N)C(=O)O` [L-Lysine], for which, under setting [1], the “% inhibition of carbonylation (average)” value stood at 21% and the “Percentage of protein carbonylation level (average)” value (“Percentage” for short) amounted to 79%. Further, under setting [2], the “% inhibition of carbonylation (average)” value stood at 40% and the “Percentage” value worked out at 60%.

Consider “Dendritic PL: dendritic polylysine, DendriClear from Lucas Meyer, Mw = 6171”, for which the “Percentage” value runs as follows: under setting [1], 43%; under setting [2], 19%.
